# Experimental data: ChEMBL document CHEMBL3621127, “8-Hydroxyquinoline: a privileged structure with a broad-ranging pharmacological potential” (Medchemcomm, 2015)
# Tests used:
# [1] = Selectivity index, ratio of CC50 for mouse J774A.1 cells to IC50 for amastigote form of Leishmania donovani MHOM//IN/80/Dd8 infected in mouse J774A.1 cells; assay type: functional
# Leishmania donovani = test: Antileishmanial activity against amastigote form of Leishmania donovani MHOM//IN/80/Dd8 infected in mouse J774A.1 cells after 72 hrs by luciferase reporter gene assay; assay type: functional, organism-based; conditions: MHOM//IN/80/Dd8, J774.A1, 72 h
# [2] = molecular target: Amyloid-beta precursor protein (Homo sapiens, UniProt P05067); test: Inhibition of self-induced amyloid beta (1 to 42) (unknown origin) aggregation after 48 hrs by ThT assay
# [3] = Acute toxicity in po dosed KM mouse measured for 14 days; assay type: organism-based; conditions: in vivo
# [4] = Inhibition of Mycobacterium tuberculosis Fructose 1,6-bisphosphate aldolase class 2 expressed in Escherichia coli BL21(DE3) assessed as cleavage of fructose 1,6-bisphosphate by fluorescence assay
# Amyloid-beta precursor protein, sequence (P05067 whole entry): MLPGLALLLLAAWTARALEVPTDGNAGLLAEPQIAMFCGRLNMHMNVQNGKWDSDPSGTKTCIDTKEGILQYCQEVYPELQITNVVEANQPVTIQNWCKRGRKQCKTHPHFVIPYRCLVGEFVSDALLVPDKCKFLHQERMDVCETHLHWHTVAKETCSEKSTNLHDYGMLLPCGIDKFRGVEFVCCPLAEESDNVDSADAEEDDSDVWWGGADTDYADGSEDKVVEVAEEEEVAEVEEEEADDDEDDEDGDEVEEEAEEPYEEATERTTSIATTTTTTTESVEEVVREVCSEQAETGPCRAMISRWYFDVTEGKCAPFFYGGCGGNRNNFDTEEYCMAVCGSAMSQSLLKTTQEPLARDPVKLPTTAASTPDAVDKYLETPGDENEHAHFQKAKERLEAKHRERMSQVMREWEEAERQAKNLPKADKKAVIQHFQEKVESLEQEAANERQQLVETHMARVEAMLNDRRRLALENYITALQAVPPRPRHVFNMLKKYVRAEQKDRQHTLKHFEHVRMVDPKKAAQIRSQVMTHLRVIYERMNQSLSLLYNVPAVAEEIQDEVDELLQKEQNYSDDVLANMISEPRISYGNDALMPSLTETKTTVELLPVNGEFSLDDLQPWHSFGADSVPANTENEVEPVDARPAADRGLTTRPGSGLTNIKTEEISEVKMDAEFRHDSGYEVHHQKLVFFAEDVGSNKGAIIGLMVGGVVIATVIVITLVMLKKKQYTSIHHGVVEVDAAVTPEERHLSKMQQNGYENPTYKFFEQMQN
SMILES,Ratio CC50/IC50 [1],IC50 (Leishmania donovani),IC50 [2],LD50 at 336 h [3],IC50 [4]
COc1ccc(OC)c(/C=C/NC(=O)c2cc(O)c3cccc(OC)c3n2)c1,25.27,3.75 µM,–,–,–
CCCCCCCCCCCCCCCCOP(=O)([O-])OCC[N+](C)(C)C [MILTEFOSINE],4.1,12.4 µM,–,–,–
Oc1ccc(/C=C/c2ccc(O)c3ncccc23)cc1,–,–,8.5 µM,> 2000 mg/kg,–
O=C(O)c1ccc2cccc(O)c2n1,–,–,–,–,10 µM
